Measurements as given in patent US10413505B1, “Pharmaceutical compositions and methods of using the same” (priority 2017, dated 2019).

Experiments:
[1] = Example 1 urinary pharmacokinetics after intranasal administration; type: in vivo, human; conditions: healthy subjects; single intranasal 160 mg cocaine HCl; urine 0-12 h; metabolites as cocaine equivalents
Method: A single dose of a pharmaceutical composition was administered to both nostrils using cottonoid pledgets. […] Each pledget absorbed approximately 1 mL of pharmaceutical composition (i.e., 40 mg cocaine hydrochloride). Two soaked pledgets were placed into each nasal cavity of the subject and against the anterior septum for 20 minutes; thus, a total dose of 160 mg of cocaine hydrochloride was administered.
Urine samples were collected pre-dose and at the following intervals from the start of intranasal application of the pharmaceutical composition: 0-2 hours, 2-4 hours, 4-8 hours, and 8-12 hours. […] A 25-μL aliquot of each urine sample was processed by liquid-liquid extraction.
Urinary pharmacokinetic parameters were analyzed using noncompartmental methods.

[2] = Example 2 urinary pharmacokinetics, normal renal function vs severe renal impairment; conditions: single intranasal 160 mg cocaine HCl; for 0 to 32 hour urinary recovery (geometric mean) / 0 to 32 hour urinary recovery (mean) / 0 to 32 hour urinary recovery (median): metabolites as cocaine equivalents
Method: For the urine analysis of cocaine, BE, and EME, individual urinary recoveries for each analyte were determined over each collection interval as the product of the urine concentration times the urine volume. The total recoveries were determined as the sum of the recoveries over all the intervals. Total urinary recoveries were also expressed as the percentage of the administered dose, after correction for the molecular weight of each analyte. The renal clearances of cocaine, BE, and EME were determined as the urinary recovery (in μg) divided by the plasma AUC over the same time interval (the longest period for which both plasma and urine measurements were available).
Urine was collected prior to dosing and from 0-2, 2-4, 4-8, 8-12, 12-24, and 24-32 hours after the beginning of dose application. […] Testing methods used were consistent with those used by inVentiv Health Clinical Lab, Inc., Miami, Fla., U.S.A. Urinary pharmacokinetic parameters included total urinary recovery (μg), urinary recovery as a percentage of dose, and CLr.

[3] = Example 3 plasma pharmacokinetics, normal hepatic function vs hepatic impairment
[4] = severe renal impairment, listed as Ecgonine Methyl Ester
[5] = normal hepatic function, single intranasal 160 mg cocaine HCl, plasma
[6] = plasma, subjects with hepatic impairment, single intranasal dose

COC(=O)[C@@H]1[C@H]2CC[C@@H](C[C@@H]1O)N2C [EME, ecgonine methyl ester]
Total Urinary Recovery (Geometric mean) [1]: 252 µg
Total Urinary Recovery (Mean) [1]: 275 µg
Total Urinary Recovery (Median) [1]: 276 µg
Urinary Recovery (Geometric mean) [1]: 0.240 % dose
Urinary Recovery (Mean) [1]: 0.262 % dose
Urinary Recovery (Median) [1]: 0.263 % dose
0-32 h Urinary Recovery (geometric mean) ([2]; normal renal function): 894.9 µg
0-32 h Urinary Recovery (mean) ([2]; normal renal function): 1095 µg
0-32 h Urinary Recovery (median) ([2]; normal renal function): 892.8 µg
Renal Clearance, CLr (geometric mean) ([2]; normal renal function): 18.1 L/h
Renal Clearance, CLr (mean) ([2]; normal renal function): 19.1 L/h
Renal Clearance, CLr (median) ([2]; normal renal function): 21.4 L/h
Renal Clearance, geometric mean ([2]; normal renal function): 302.2 mL/min
Renal Clearance, mean ([2]; normal renal function): 317.8 mL/min
Renal Clearance, median ([2]; normal renal function): 356.1 mL/min
0 to 32 hour urinary recovery (geometric mean) ([2]; normal renal function): 0.954 % of administered dose
0 to 32 hour urinary recovery (mean) ([2]; normal renal function): 1.17 % of administered dose
0 to 32 hour urinary recovery (median) ([2]; normal renal function): 0.952 % of administered dose
0 to 32 hour urinary recovery (mean) ([2]; normal renal function, listed as Ecgonine Methyl Ester): 1.167 % of administered dose
0-32 h Urinary Recovery (geometric mean) ([2]; severe renal impairment): 1177.8 µg
0-32 h Urinary Recovery (mean) ([2]; severe renal impairment): 1425 µg
0-32 h Urinary Recovery (median) ([2]; severe renal impairment): 1104 µg
Renal Clearance, CLr (geometric mean) ([2]; severe renal impairment): 4.23 L/h
Renal Clearance, CLr (mean) ([2]; severe renal impairment): 4.95 L/h
Renal Clearance, CLr (median) ([2]; severe renal impairment): 4.05 L/h
Renal Clearance, geometric mean ([2]; severe renal impairment): 70.6 mL/min
Renal Clearance, mean ([2]; severe renal impairment): 82.5 mL/min
Renal Clearance, median ([2]; severe renal impairment): 67.6 mL/min
0 to 32 hour urinary recovery (geometric mean) ([2]; severe renal impairment): 1.26 % of administered dose
0 to 32 hour urinary recovery (mean) ([2]; severe renal impairment): 1.52 % of administered dose
0 to 32 hour urinary recovery (median) ([2]; severe renal impairment): 1.177 % of administered dose
0 to 32 hour urinary recovery (geometric mean) [2, 4]: 1.255 % of administered dose
0 to 32 hour urinary recovery (mean) [2, 4]: 1.519 % of administered dose
AUClast, times higher than normal subjects ([3]; Grade B hepatic impairment): approximately 2.4 times
AUClast, times higher than normal subjects ([3]; Grade C hepatic impairment): 2.2 times
AUC0→t (Geometric mean) [3, 5]: 61.2 ng·h/mL
AUC0→t (Max) [3, 5]: 198 ng·h/mL
AUC0→t (Mean) [3, 5]: 72.9 ng·h/mL
AUC0→t (Median) [3, 5]: 59.1 ng·h/mL
AUC0→t (Min) [3, 5]: 24.5 ng·h/mL
AUC0→∞ (Geometric mean) [3, 5]: 76.1 ng·h/mL
AUC0→∞ (Max) [3, 5]: 212 ng·h/mL
AUC0→∞ (Mean) [3, 5]: 89.6 ng·h/mL
AUC0→∞ (Median) [3, 5]: 72.9 ng·h/mL
AUC0→∞ (Min) [3, 5]: 31.5 ng·h/mL
Clast (Geometric mean) [3, 5]: 1.67 ng/mL
Clast (Max) [3, 5]: 3.72 ng/mL
Clast (Mean) [3, 5]: 1.85 ng/mL
Clast (Median) [3, 5]: 1.60 ng/mL
Clast (Min) [3, 5]: 1.00 ng/mL
Cmax (Geometric mean) [3, 5]: 8.75 ng/mL
Cmax (Max) [3, 5]: 26.8 ng/mL
Cmax (Mean) [3, 5]: 10.0 ng/mL
Cmax (Median) [3, 5]: 7.81 ng/mL
Cmax (Min) [3, 5]: 3.83 ng/mL
Tlast (Geometric mean) [3, 5]: 15.4 h
Tlast (Max) [3, 5]: 28.0 h
Tlast (Mean) [3, 5]: 16.5 h
Tlast (Median) [3, 5]: 12.0 h
Tlast (Min) [3, 5]: 600 min
Tmax (Geometric mean) [3, 5]: 1.33 h
Tmax (Max) [3, 5]: 3.00 h
Tmax (Mean) [3, 5]: 1.45 h
Tmax (Median) [3, 5]: 1.25 h
Tmax (Min) [3, 5]: 30 min
t1/2 (Geometric mean) [3, 5]: 5.99 h
t1/2 (Max) [3, 5]: 9.97 h
t1/2 (Mean) [3, 5]: 6.27 h
t1/2 (Median) [3, 5]: 5.69 h
t1/2 (Min) [3, 5]: 250 min
AUC0→t (Geometric mean) [3, 6]: 146 ng·h/mL
AUC0→t (Mean) [3, 6]: 185 ng·h/mL
AUC0→t (Median) [3, 6]: 140 ng·h/mL
AUC0→∞ (Geometric mean) [3, 6]: 212 ng·h/mL
AUC0→∞ (Mean) [3, 6]: 233 ng·h/mL
AUC0→∞ (Median) [3, 6]: 185 ng·h/mL
Clast (Geometric mean) [3, 6]: 1.57 ng/mL
Clast (Mean) [3, 6]: 1.65 ng/mL
Clast (Median) [3, 6]: 1.67 ng/mL
Cmax (Geometric mean) [3, 6]: 11.3 ng/mL
Cmax (Mean) [3, 6]: 16.1 ng/mL
Cmax (Median) [3, 6]: 9.11 ng/mL
Tlast (Geometric mean) [3, 6]: 26.3 h
Tlast (Mean) [3, 6]: 27.7 h
Tlast (Median) [3, 6]: 32.0 h
Tmax (Geometric mean) [3, 6]: 2.90 h
Tmax (Mean) [3, 6]: 3.84 h
Tmax (Median) [3, 6]: 4.00 h
t1/2 (Geometric mean) [3, 6]: 8.67 h
t1/2 (Mean) [3, 6]: 9.26 h
t1/2 (Median) [3, 6]: 8.3 h
